# PubChem BioAssay AID1259418 (Broad Institute, 2018)
# Where “and” joins values, the source holds several entries; their conditions need not be identical. Equal entries are not always repeated. Results filed as inconclusive are left out. Calls of active or inactive are those of the source.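 The calls were made as follows: active = fitted half-maximal concentration of signal decrease at or below twice the sample's top tested concentration; inconclusive = flat curve between -70 and -30 percent, or poor fit; inactive = flat within 30 percent, signal rise, or potency above limit.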
# Biological target: T. gondii ME49Luc in IFN-y HeLa, luciferase, 72 h
# Experiment: T. gondii growth inhibition with IFN-gamma, dose response, cell-based, ME49Luc, HeLa, luciferase, 72 h (AID 1259418)
row,Structure (SMILES),AC50
1,Cc1ccccc1Cn1c(CN2CCC(C(=O)NCCCN3CCCC3=O)CC2)cc2ccccc21,> 39000 nM (inactive)
2,CC(C)Cc1ccc(S(=O)(=O)N2CCC[C@@H]2C(=O)NCCc2csc(-c3ccccc3)n2)cc1,12400 nM
3,C[C@@H]1CN([C@@H](C)CO)C(=O)c2cccc(NC(=O)NC3CCCCC3)c2O[C@H]1CN(C)Cc1ccc(C(F)(F)F)cc1,16000 nM
4,O=C(CCC1N=C2c3ccccc3N=C(SCc3cc(=O)n4cc(Cl)ccc4n3)N2C1=O)NCc1cccs1 (stereo not given),32000 nM
5,O=C(CC1CC1)N1CC[C@@H]2[C@@H](CO)Nc3ccc(-c4ccc(F)cc4)cc3[C@@H]21,21100 nM
6,Cc1ccc(-c2coc(-c3ccc(NC(=O)c4cccs4)cc3)n2)c(C)c1,13800 nM
7,O=S1(=O)c2ccccc2OCC2(CCN(Cc3ccc(F)cc3)CC2)CN1CC1CC1,26600 nM
8,COC(=O)C[C@H]1CC[C@@H]2[C@H](COc3ccc(NC(=O)Nc4cccc(C#N)c4)cc3C(=O)N2C)O1,19500 nM
9,O=C(Nc1cccnc1)c1cc(-c2cnc(-c3ccccc3)nc2)cn1CC1CC1,34200 nM and 26900 nM
10,CCOc1ccccc1NS(=O)(=O)c1cc2c3c(c1)CCC(=O)N3CCC2,26100 nM
11,COc1cc(OC)cc(C(=O)Nc2ccc(-c3nc(-c4ccc(C)cc4C)co3)cc2)c1,29700 nM
12,COc1ccc(CNC(=O)CC2N=C3c4ccccc4N=C(SCc4ccc(F)cc4)N3C2=O)cc1 (stereo not given),22600 nM
13,Cc1nc(-c2cccc(-c3noc(C(=O)NCCCN4CCC(C)CC4)n3)c2)cs1,> 39000 nM (inactive)
14,COc1cccc(-c2nc(C)c(-c3ccc(SCc4ccc(Cl)cc4)nn3)s2)c1,8760 nM
15,CC(C)NC(=O)N1CC(=O)N2[C@H](CO)[C@@H](c3ccc(/C=C/c4ccccc4)cc3)[C@H]2C1,26500 nM and 8870 nM
16,CN(C)C(=O)c1ccc(-c2ccc(C3[C@@H]4CN(Cc5ccc6c(c5)OCO6)C[C@H]3N4)cc2)cc1 (stereo not given in full),17300 nM
17,C=C(C)[C@@H]1CC[C@]2(C(=O)O)CC[C@]3(C)[C@H](CC[C@@H]4[C@@]5(C)CC[C@H](O)C(C)(C)[C@@H]5CC[C@]43C)[C@@H]12,30000 nM
18,COc1cccc(CN2CCC3(COCc4cnc(-c5ccccc5)nc43)C2)c1 (stereo not given),17400 nM
19,Cc1ccc(CNC(=O)CC2Nc3c4ccccc4nc(=S)n3C2=O)cc1 (stereo not given),31500 nM
20,c1ccc(-c2noc(-c3ccc(N4CCC(N5CCCCC5)CC4)nc3)n2)cc1,18600 nM
21,COc1cc(CN2C[C@@H]3N[C@H](C2)C3c2ccc(-c3ccc(C#N)cc3)cc2)cc(OC)c1 (stereo not given in full),6020 nM and 7290 nM and 16700 nM
22,Cc1ccc(-c2nc(CN3CCN(C(=O)Nc4ccccc4)CC3)c(C)o2)cc1,17500 nM
23,CC(C)CC#Cc1ccc([C@@H]2[C@H](CO)N3C(=O)CN(C(=O)Nc4cc(F)ccc4F)C[C@@H]23)cc1,12600 nM and 4610 nM

row,Structure (SMILES),AC50
1,Cc1cccc(NC(=O)c2cc(-c3cnc(N4CCOCC4)nc3)cn2CC2CC2)c1,22200 nM
2,Cc1nc(-c2cc(S(=O)(=O)NCCCN3CCCC(C)C3)c(C)s2)sc1C (stereo not given),33700 nM
3,O=C(Cc1cccnc1)N1CC(=O)N2[C@H](CO)[C@@H](c3ccc(C#CC4CCCCC4)cc3)[C@@H]2C1,8960 nM and 14800 nM
4,CC(C)Cc1ccc(S(=O)(=O)N2CCC3(CC2)NCCN=C3NCc2ccc3c(c2)OCO3)cc1,5760 nM
5,CC(C)CC#Cc1ccc([C@H]2[C@H]3CN(C(=O)Nc4cc(F)ccc4F)CC(=O)N3[C@H]2CO)cc1,> 39 µM (inactive) and 8.8 µM
6,OC[C@H]1N[C@@H](CNCC2CCC2)[C@@H]1c1ccc(C2=CCCCC2)cc1,12400 nM and 20400 nM
7,COc1ccc(S(=O)(=O)N2CSC[C@@H]2C(=O)NCCc2csc(-c3ccccc3)n2)cc1,17600 nM
8,CCc1cnc(N2[C@@H](C#N)[C@@H](c3ccc(C#Cc4ccccc4F)cc3)[C@@H]2CO)s1,17200 nM
9,CCc1ccc(C(=O)Nc2ccc3c(c2)CCC(=O)N3C)cc1,7060 nM
10,COc1ccc(-c2nc(CN(c3ccc(C)cc3)S(=O)(=O)c3cccs3)c(C)o2)cc1OC,15000 nM
11,COc1ccc(-c2nc(CN(c3cccc(OC)c3)S(=O)(=O)c3ccccc3)c(C)o2)cc1,9750 nM
12,C[C@H](CO)N1C[C@H](C)[C@H](CN(C)C(=O)Nc2ccc(C(F)(F)F)cc2)Oc2c(NC(=O)c3ccc(-c4nccs4)cc3)cccc2C1=O,18000 nM
13,Cc1ccc(Cn2c(=O)c3nn(C)cc3n3c(=O)n(Cc4nc(-c5ccccc5)oc4C)nc23)cc1,13100 nM
14,COc1cccc(N(Cc2nc(-c3cccc(C)c3)oc2C)S(=O)(=O)c2ccccc2)c1,8500 nM
15,O=C(c1ccccc1Cl)N1CCC2(CC1)Nc1cc(F)ccc1-n1cccc12,> 39000 nM (inactive)
16,COc1ccc(-c2nc(CN(c3ccccc3OC)S(=O)(=O)c3ccccc3)c(C)o2)cc1OC,3590 nM
17,O=C(c1cnccn1)N1CC(=O)N2[C@H](C1)[C@H](c1ccc(/C=C/c3ccccc3)cc1)[C@@H]2CO,11900 nM and 23500 nM
18,O=C(Cc1cccnc1)N1CC(=O)N2[C@H](CO)[C@@H](c3ccc(C4=CCCCC4)cc3)[C@H]2C1,25300 nM
19,COc1ccc(OC)c(S(=O)(=O)N2CCc3c([nH]c4ccccc34)C2c2cc(F)ccc2F)c1 (stereo not given),> 39000 nM (inactive)
20,O=C(CCC1N=C2c3ccccc3N=C(SCc3cc(=O)n4cc(Cl)ccc4n3)N2C1=O)NC1CCCCC1 (stereo not given),> 39000 nM (inactive)
21,Cc1cccc(C(=O)N2CCC3(CC2)Nc2cc(F)ccc2-n2cccc23)c1,> 39000 nM (inactive)
22,O=c1c(O)c(-c2ccc(O)c(O)c2)oc2cc(O)cc(O)c12,17600 nM
